Laboratory results as given in patent publication US5827837A, “Polyanion anti-inflammatory agents” (priority 1996, dated 1998).
Entries after “also recorded” stand apart in the source; their conditions may differ.

Legend:
[1] = target: T1, P-selectin-lg fusion protein (Homo sapiens, UniProt P16109); experiment: Competition ELISA: binding of P-selectin-Ig to immobilized BSA-sLe^x; settings: for IC50: read-out: IC50, P-selectin binding
T1 construct: Each selectin-lg contains the lectin domain, epidermal growth factor domain, and one (L-selectin-lg), two (P-selectin-lg) or six (E-selectin-lg) complement regulatory repeats; made in house
T1 sequence (P16109 with tags, fused parts or gaps limits assumed): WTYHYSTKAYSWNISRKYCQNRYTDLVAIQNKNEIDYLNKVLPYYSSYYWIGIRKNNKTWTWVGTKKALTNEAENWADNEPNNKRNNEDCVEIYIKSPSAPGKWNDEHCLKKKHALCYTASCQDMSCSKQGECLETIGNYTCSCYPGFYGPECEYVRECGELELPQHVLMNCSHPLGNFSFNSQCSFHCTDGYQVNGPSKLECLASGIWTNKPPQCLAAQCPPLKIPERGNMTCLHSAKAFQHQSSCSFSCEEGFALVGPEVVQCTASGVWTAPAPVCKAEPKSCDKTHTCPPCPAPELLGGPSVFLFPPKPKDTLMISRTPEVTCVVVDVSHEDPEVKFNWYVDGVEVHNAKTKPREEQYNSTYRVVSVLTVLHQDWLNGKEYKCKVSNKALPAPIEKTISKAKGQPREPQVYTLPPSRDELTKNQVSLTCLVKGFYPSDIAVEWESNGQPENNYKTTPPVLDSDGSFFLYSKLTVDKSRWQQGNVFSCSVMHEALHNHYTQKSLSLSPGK
Excerpt: (§1) Selectin-lg fusion proteins are recombinant chimeric molecules containing extracellular regions of selectins coupled to the hinge, CH2, and CH3 regions of human IgG1 (Aruffo, A., et al., Cell, 67:35, 1991; Walz, G., et al., Science, 250:1132, 1990). Each selectin-lg contains the lectin domain, epidermal growth factor domain, and one (L-selectin-lg), two (P-selectin-lg) or six (E-selectin-lg) complement regulatory repeats of the parent molecules. DNAs encoding selectin-Ig inserted in pCDM7 allowed transient expression of recombinant proteins in COS cells as previously described (Seed, B., et al., Proc. Natl. Acad. Sci., U.S.A., 84:3365, 1987; Aruffo, A., Current Protocols In Molecular Biology, eds. Ausubel, F. M., et al, 16:13.1, Greene Publishing Associates and Wiley-lnterscience, New York, N.Y., 1992). These DNAs were also ligated into pNUT (Palmiter, R. D., et al, Cell, 50:435, 1987) for amplification and stable expression in BHK cells. The fusion proteins were affinity purified from culture media using protein A (Pierce Chemical Company, Rockford, Ill.) or protein G (Pharmacia, Piscataway, N.J.) Sepharose, as previously described (Aruffo, A., et al., Cell, 67:35, 1991; Aruffo, A., Current Protocols In Molecular Biology, eds. Ausubel, F. M., et al, supra, 1992). Competition binding ELISAs using P- and E-selectin-lg were performed essentially as described (Nelson, R. M., et al., J. Clin. Invest., 91:1157, 1993), except that the assay buffer was 20 mM HEPES pH 7.4, 150 mM NaCl, 2 mM CaCl2, and 0.25 mM thimerosal, containing 10 mg/ml BSA, protease-free, (Miles Inc., Kankakee, Ill.). Selectin concentrations were from 10 to 30 nM. […] To increase L-selectin binding, an assay similar to that previously described was used (Foxall, C., et al., J. Cell Biol., 117:895, 1992), in which the L-selectin-lg (10-20 nM) was allowed to form aggregates with HRP-conjugated anti-lg antibody for 30 minutes prior to addition of inositols and incubation on the BSA-sLe^x -coated plate. IC50 values were calculated by fitting binding data to the equation: fraction of maximal binding=IC50 […] using nonlinear least squares analysis software (Origin, Microcal Inc, Northampton, Mass.). InsP6 (dodecasodium salt), InsS6 (hexapotassium salt), myo-inositol 1 monophosphate (cyclohexylammonium salt), and myo-inositol were from Sigma Chemical Company (St. Louis, Mo.). Stock solutions were prepared daily in 0.9% NaCl and sterilized by 0.22 μm filtration. InsP6 solutions were adjusted at pH 7.4 with HCl.
(§2) L-, P-, or E-selectin-lg fusion proteins were incubated for 2-3 hours on microtiter plates coated with the neoglycoprotein BSA-sLe^x, the plates washed, and bound selectin-lg was detected using a peroxidase-conjugated antibody directed against the lg portion and a chromogenic substrate. To determine blocking activity, solution-phase lnsP6 (.circle-solid.), InsS6 (.largecircle.), or inositol (.box-solid.) at the indicated concentrations were added to the solutions containing selectin-Ig fusion proteins prior to transfer to microtiter plates (competition ELISA).

[2] = target: T2, E-selectin-lg fusion protein (Homo sapiens, UniProt P16581); experiment: Competition ELISA: binding of E-selectin-Ig to immobilized BSA-sLe^x; settings: BSA-sLe^x competition ELISA
T2 construct: Each selectin-lg contains the lectin domain, epidermal growth factor domain, and one (L-selectin-lg), two (P-selectin-lg) or six (E-selectin-lg) complement regulatory repeats; made in house
T2 sequence (P16581 with tags, fused parts or gaps limits assumed): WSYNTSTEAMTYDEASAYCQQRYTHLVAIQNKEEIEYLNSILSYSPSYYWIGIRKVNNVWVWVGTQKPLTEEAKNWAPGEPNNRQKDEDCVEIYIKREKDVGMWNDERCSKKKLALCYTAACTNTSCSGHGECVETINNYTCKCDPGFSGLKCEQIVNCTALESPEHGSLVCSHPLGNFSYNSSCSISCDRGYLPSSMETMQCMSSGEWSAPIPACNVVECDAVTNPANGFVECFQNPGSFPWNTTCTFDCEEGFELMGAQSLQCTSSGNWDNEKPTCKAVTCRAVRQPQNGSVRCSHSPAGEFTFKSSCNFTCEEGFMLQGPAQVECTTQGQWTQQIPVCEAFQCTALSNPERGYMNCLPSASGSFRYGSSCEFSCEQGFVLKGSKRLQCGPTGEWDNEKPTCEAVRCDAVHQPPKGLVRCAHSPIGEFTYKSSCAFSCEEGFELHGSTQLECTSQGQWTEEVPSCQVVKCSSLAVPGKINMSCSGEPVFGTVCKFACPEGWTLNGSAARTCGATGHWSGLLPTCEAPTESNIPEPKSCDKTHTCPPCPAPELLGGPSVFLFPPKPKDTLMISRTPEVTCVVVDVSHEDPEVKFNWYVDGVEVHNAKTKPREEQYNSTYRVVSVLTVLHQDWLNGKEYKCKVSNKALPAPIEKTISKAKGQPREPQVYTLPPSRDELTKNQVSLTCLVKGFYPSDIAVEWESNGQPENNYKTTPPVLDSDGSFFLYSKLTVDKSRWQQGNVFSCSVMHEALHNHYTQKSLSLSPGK
Excerpt: as §1, §2

[3] = tested on: PMN within the peritoneal cavity; experiment: Thioglycollate-induced peritoneal inflammation, PMN accumulation; assay type: in vivo, mice (Balb/c); settings: mice
[4] = tested on: PMN within the peritoneal cavity; experiment: Zymosan-induced peritoneal inflammation, PMN accumulation; assay type: in vivo, mice (Balb/c); settings: mice
Protocol: Mice (Balb/c males, 4-5 weeks old, 20-24 grams) were injected i.p. with 1 ml of 3% thioglycollate broth (lot #622462, Clinical Standard Laboratories, Inc., Rancho Dominguez, Calif.) left panel, or 0.5 mg of zymosan (Sigma) in 1 ml of sterile, pyrogen-free saline (Abbott Laboratories, North Chicago, Ill.), (FIG. 4, right panel). Control animals were injected i.p. with 1 ml of sterile pyrogen-free saline. After 40 and 80 min the animals received i.v. injections of 0.2 ml of sterile saline with or without InsP6 (total of 80 μmol/kg) or inositol (400 μmol/kg). Mice were sacrificed at 120 min and PMN within the peritoneal cavity were collected by lavage with 10 ml of ice-cold PBS containing 10 U/ml of heparin. After red blood cell lysis, the cells were counted in a hemocytometer (2 separate counts per sample, in triplicate). The percentage of PMN was assessed by counting cytospin preparations (two counts per slide, 300 cells per count) stained with Dif-Quick stain (Baxter, McGaw Park, Ill). Data are expressed as the mean ±s.d. of three separate experiments, with 5-6 animals per group in each experiment except for the group injected with saline i.p. that was constituted by 2 animal per experiment. […]

[5] = Ca^2+; read-out: Kd, calcium binding; cited from earlier work

What does the source list for `O=P(O)(O)O[C@H]1[C@H](OP(=O)(O)O)[C@@H](OP(=O)(O)O)[C@H](OP(=O)(O)O)[C@@H](OP(=O)(O)O)[C@H]1OP(=O)(O)O` [InsP6, myo-inositol hexakisphosphate]?
IC50 ([1]; BSA-sLe^x competition ELISA): 160 ± 40 µM; blocking of P-selectin-Ig at reduced Ca^2+ ([1]; Ca^2+ reduced to 0.15 mM): not enhanced; inhibition of E-selectin-Ig binding [2]: failed to inhibit the binding of E-selectin-lg at concentrations up to 5 mM; also recorded: did not block E-selectin-lg binding; inhibition of PMN accumulation, single subcutaneous injection ([3]; 40-100 μmol/kg s.c. 3 min after thioglycollate): 46-59%; reduction in PMN recovered from the peritoneal cavity ([3]; i.v. at 40 and 80 min, total 80 μmol/kg, PMN at 120 min, 3 experiments): 58±3%; effect in zymosan-induced peritoneal inflammation ([4]; relative to thioglycollate model): equally effective; Kd [5]: ~5 µM

Which results are given for `O=S(=O)(O)O[C@H]1[C@H](OS(=O)(=O)O)[C@@H](OS(=O)(=O)O)[C@H](OS(=O)(=O)O)[C@@H](OS(=O)(=O)O)[C@H]1OS(=O)(=O)O` [InsS6, myo-inositol hexakissulfate]?
IC50 ([1]; BSA-sLe^x competition ELISA): 3200 ± 500 µM; inhibition of E-selectin-Ig binding [2]: failed to inhibit the binding of E-selectin-lg at concentrations up to 5 mM; inhibition of PMN accumulation, thioglycollate model ([3]; 400 μmol/kg, 1 experiment): 33±13%; inhibition of PMN accumulation, zymosan model ([4]; 400 μmol/kg, 1 experiment): 31±11%

For `O[C@H]1[C@H](O)[C@@H](O)[C@H](O)[C@@H](O)[C@H]1O` [myo-inositol, reference compound], which “blocking of P-selectin-Ig binding” value ([1]; BSA-sLe^x competition ELISA) is on record?
Its value is “not myo-isositol, blocked binding”.
